The record followed here is ChEMBL document CHEMBL1143131, “Synthesis and anti-HIV activity of GS-9148 (2'-Fd4AP), a novel nucleoside phosphonate HIV reverse transcriptase inhibitor” (Bioorg Med Chem Lett, 2008).

A value given as a limit tells only on which side of the number the result lay.

The subject of data set [1] is Human immunodeficiency virus. The data set is described as follows: Antiviral activity against HIV with reverse transcriptase 6TAMs mutation assessed as fold resistance relative to wild type. It counts as functional.
Data set [2] has as its system Human immunodeficiency virus. The data set is described as follows: Antiviral activity against HIV with reverse transcriptase M184V mutation assessed as fold resistance relative to wild type. The class given is functional.
Data set [3] deals with Human immunodeficiency virus 1. The data set is described as follows: Antiviral activity against wild type HIV1 3B in MT2 cells. It counts as functional, organism-based. The following applies: Human immunodeficiency virus 1, 3B.
Data set [4] in a line: Cytotoxicity against human MT2 cells. The class given is cell-based.
Data set [5] has as its system Human immunodeficiency virus. The data set is described as follows: Antiviral activity against HIV with reverse transcriptase K65R mutation assessed as fold resistance relative to wild type. It counts as functional.
The target in data set [6] is Human immunodeficiency virus type 1 reverse transcriptase (Human immunodeficiency virus 1, UniProt Q72547). The experiment in a line: Inhibition of wild type HIV 3B reverse transcriptase.

One may read the EC50 as the midpoint of the concentration-response curve. Low readings indicate higher potency in that assay, high ones lower potency in that assay. What is called CC50 is the concentration giving 50% cytotoxicity. Low readings indicate harm at low concentration, high ones better tolerance by the cells. Regarding `Nc1ncnc2c1ncn2[C@@H]1C=C[C@H](OCP(=O)(O)O)O1`, the Activity in data set [1] was determined as 13.7; in data set [2], 7.1; in data set [5], 3.6. This compound also gave a concentration for a half-maximal effect (EC50) in data set [3] of 5.9 µM. This compound had a CC50 in data set [4] greater than 1000 µM.

Usually IC50 stands for the concentration that inhibits the measured activity by half. A low value points to higher potency. Consider `Nc1ncnc2c1ncn2[C@H]1C=C[C@@H](OCP(=O)(O)O)O1`, for which the Activity in data set [1] is reported as 2.9; in data set [2], 0.9; in data set [5], 2.9. For the same compound, the response in data set [3] was half-maximal at 2.1 µM (EC50). The same compound had a CC50 in data set [4] greater than 1000 µM. Besides, in data set [6], the IC50 stood at 0.6 µM.

On to `Nc1ncnc2c1ncn2[C@@H]1O[C@H](OCP(=O)(O)O)C=C1F` [GS-9148], for which the Activity in data set [1] was 4.3; in data set [2], 0.8; in data set [5], 1.1. In data set [4], the half-maximal cytotoxic concentration (CC50) is greater than 1000 µM. Half-maximal inhibition in data set [6] (IC50) was put at 1.9 µM.

Take `C[C@H](Cn1cnc2c(N)ncnc21)OCP(=O)(O)O` [TENOFOVIR ANHYDROUS]: the Activity in data set [1] came to 8.8; in data set [2], 0.7; in data set [5] it was 4.3. In data set [4], this compound yielded a CC50 greater than 500 µM.

Consider `Cc1cn([C@H]2C[C@H](N=[N+]=[N-])[C@@H](CO)O2)c(=O)[nH]c1=O` [ZIDOVUDINE], for which the Activity is reported as greater than 50 in data set [1], 0.7 in data set [2] and 1.2 in data set [5]. In addition, the EC50 in data set [3] worked out at 0.16 µM. In data set [4], the 50% cytotoxic concentration (CC50) is greater than 200 µM.
